Laboratory results reported in US20230023559A1, “ARYLMETHYLENE HETEROCYCLIC COMPOUNDS AS KV1.3 POTASSIUM SHAKER CHANNEL BLOCKERS” (D. E. Shaw Research, LLC, priority 2019, published 2023).

Assays:
Kv1.3 potassium channel = target: T1, Kv1.3 potassium channel (Homo sapiens, UniProt P22001); assay: Kv1.3 potassium channel blocker activity, automated whole-cell patch clamp (Patchliner); assay type: cell-based; settings: CHO-K1 cells stably expressing Kv1.3; whole cell current inhibition; read-out: Kv1.3_IC50
T1 construct: expressed in transfected cells
T1 sequence (P22001 whole entry): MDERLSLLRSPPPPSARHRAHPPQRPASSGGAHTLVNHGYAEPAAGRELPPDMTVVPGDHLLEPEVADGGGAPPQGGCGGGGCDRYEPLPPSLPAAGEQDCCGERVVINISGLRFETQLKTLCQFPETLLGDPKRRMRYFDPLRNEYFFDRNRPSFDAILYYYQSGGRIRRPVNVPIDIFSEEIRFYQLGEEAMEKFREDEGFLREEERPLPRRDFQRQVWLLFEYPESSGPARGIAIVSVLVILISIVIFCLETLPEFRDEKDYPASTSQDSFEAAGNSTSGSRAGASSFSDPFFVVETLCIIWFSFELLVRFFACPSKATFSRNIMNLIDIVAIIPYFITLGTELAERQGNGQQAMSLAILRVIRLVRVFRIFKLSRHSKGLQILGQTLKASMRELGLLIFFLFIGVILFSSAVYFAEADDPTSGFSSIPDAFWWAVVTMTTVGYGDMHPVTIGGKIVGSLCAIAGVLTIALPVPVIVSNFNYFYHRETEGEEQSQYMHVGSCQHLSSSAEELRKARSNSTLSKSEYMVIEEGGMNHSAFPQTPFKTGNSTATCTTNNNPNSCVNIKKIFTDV
Outline: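 Peak-current block was recorded on stable Kv1.3 CHO-K1 cells by automated patch clamp, stepping from a −90 mV holding potential to +40 mV for 100 ms at 0.1 Hz with 10 s breaks between trains. Online P/4 leak subtraction, 10 kHz sampling; compound exposure under 10 s per train.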

hERG channel = hERG channel (Homo sapiens, UniProt Q12809); assay: hERG electrophysiology, automated whole-cell patch clamp (Patchliner)
Sequence of hERG channel (Q12809 whole entry): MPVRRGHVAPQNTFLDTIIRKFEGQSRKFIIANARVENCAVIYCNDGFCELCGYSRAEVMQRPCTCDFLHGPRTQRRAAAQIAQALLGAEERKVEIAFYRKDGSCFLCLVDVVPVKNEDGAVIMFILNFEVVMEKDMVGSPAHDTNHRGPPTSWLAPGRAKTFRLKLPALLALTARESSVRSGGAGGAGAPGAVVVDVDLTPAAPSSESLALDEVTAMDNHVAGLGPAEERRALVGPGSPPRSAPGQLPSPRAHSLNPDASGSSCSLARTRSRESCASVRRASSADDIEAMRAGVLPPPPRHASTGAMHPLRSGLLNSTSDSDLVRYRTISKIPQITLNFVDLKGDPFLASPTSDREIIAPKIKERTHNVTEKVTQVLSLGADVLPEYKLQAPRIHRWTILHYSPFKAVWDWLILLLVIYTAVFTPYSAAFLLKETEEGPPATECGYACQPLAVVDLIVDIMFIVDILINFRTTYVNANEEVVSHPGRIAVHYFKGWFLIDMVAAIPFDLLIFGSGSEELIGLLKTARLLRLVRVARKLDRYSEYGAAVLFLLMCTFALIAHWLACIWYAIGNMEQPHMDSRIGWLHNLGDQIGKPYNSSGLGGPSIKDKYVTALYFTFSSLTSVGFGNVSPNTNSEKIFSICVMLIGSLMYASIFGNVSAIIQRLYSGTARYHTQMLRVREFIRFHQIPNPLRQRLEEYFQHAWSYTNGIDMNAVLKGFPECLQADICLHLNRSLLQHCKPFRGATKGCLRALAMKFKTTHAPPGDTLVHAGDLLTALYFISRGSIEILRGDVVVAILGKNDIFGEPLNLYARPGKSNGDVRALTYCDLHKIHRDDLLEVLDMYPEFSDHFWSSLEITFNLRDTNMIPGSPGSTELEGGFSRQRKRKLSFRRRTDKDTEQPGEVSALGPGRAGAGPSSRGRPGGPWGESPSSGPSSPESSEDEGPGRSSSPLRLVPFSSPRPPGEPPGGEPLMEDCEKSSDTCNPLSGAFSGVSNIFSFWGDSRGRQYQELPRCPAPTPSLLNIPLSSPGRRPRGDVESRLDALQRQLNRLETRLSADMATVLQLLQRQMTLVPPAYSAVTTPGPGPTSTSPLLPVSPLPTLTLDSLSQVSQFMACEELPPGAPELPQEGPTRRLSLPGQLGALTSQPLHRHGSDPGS
Method: CHO-K1 cells stably expressing hERG were grown in Ham's F-12 Medium with Glutamine containing 10% heat-inactivated FBS, 1% Penicillin/Streptomycin, Hygromycin (100 μg/ml) and G418 (100 μg/ml). Cells were grown in culture flasks at 37° C. in a 5% CO2-humidified incubator.
The cells were bathed in an extracellular solution containing 140 mM NaCl, 4 mM KCl, 2 mM CaCl2), 1 mM MgCl2, 5 mM Glucose, 10 mM HEPES; pH adjusted to 7.4 with NaOH; 295-305 mOsm. The internal solution contained 50 mM KCl, 10 mM NaCl, 60 mM KF, 20 mM EGTA, 10 mM HEPES; pH adjusted to 7.2 with KOH; 285 mOsm. All compounds were dissolved in DMSO at 30 mM. Compound stock solutions were freshly diluted with external solution to concentrations of 30 nM, 100 nM, 300 nM, 1 μM, 3 μM, 10 μM, 30 μM and 100 μM. The highest content of DMSO (0.3%) was present in 100 μM.
The voltage protocol (see Table B) was designed to simulate voltage changes during a cardiac action potential with a 300 ms depolarization to +20 mV (analogous to the plateau phase of the cardiac action potential), a repolarization for 300 ms to −50 mV (inducing a tail current) and a final step to the holding potential of −80 mV. The pulse frequency was 0.3 Hz. Control (compound-free) and compound pulse trains for each compound concentration applied contained 70 pulses.
Whole cell current recordings and compound application were enabled by means of an automated patch clamp platform Patchliner (Nanion). EPC 10 patch clamp amplifier (HEKA) along with Patchmaster software (HEKA Elektronik Dr. Schulze GmbH) was used for data acquisition. Data were sampled at 10 kHz without filtering. Increasing compound concentrations were applied consecutively to the same cell without washouts in between.
AUC and PEAK values were obtained with Patchmaster (HEKA Elektronik Dr. Schulze GmbH). To determine IC50 the last single pulse in the pulse train corresponding to a given compound concentration was used. Obtained AUC and PEAK values in the presence of compound were normalized to control values in the absence of compound. Using Origin (OridinLab), IC50 was derived from data fit to Hill equation: Icompound/Icontrol=(100−A)/(1+([compound]/IC50)nH)+A, where IC50 is the concentration at which current inhibition is half-maximal, [compound] is the applied compound concentration, A is the fraction of current that is not blocked and nH is the Hill coefficient.

N[C@@H](c1cc(Cl)c(Cl)cc1O)C1CCN(S(=O)(=O)CCO)CC1 [Compound 145, (R)-2-(amino(1-((2-hydroxyethyl)sulfonyl)piperidin-4-yl)methyl)-4,5-dichlorophenol Trifluoroacetic Acid]
IC50 (Kv1.3 potassium channel): < 0.5 µM
IC50 (hERG channel): < 30 µM

Nc1cccc(N2CCC([C@@H](N)c3cc(Cl)c(Cl)cc3O)CC2)n1 [Compound 146, (R)-2-(amino(1-(6-aminopyridin-2-yl)piperidin-4-yl)methyl)-4,5-dichlorophenol Trifluoroacetic Acid]
IC50 (Kv1.3 potassium channel): < 10 µM
IC50 (hERG channel): < 30 µM

Nc1ccc(N2CCC([C@@H](N)c3cc(Cl)c(Cl)cc3O)CC2)nc1 [Compound 147, (R)-2-(amino(1-(5-aminopyridin-2-yl)piperidin-4-yl)methyl)-4,5-dichlorophenol Trifluoroacetic Acid]
IC50 (Kv1.3 potassium channel): < 0.5 µM
IC50 (hERG channel): < 30 µM

N[C@@H](c1cc(Cl)c(Cl)cc1O)C1CCN(C(=O)N2CC(O)C2)CC1 [Compound 148, 1-[4-[(R)-amino(4,5-dichloro-2-hydroxyphenyl)methyl]piperidine-1-carbonyl]azetidin-3-ol Trifluoroacetic Acid]
IC50 (Kv1.3 potassium channel): < 0.5 µM
IC50 (hERG channel): > 30 µM

N[C@@H](c1cc(Cl)c(Cl)cc1O)C1CCN(c2cn[nH]c2)CC1 [Compound 149, 2-[(R)-amino[1-(1H-pyrazol-4-yl)piperidin-4-yl]methyl]-4,5-dichlorophenol Trifluoroacetic Acid]
IC50 (Kv1.3 potassium channel): < 10 µM
IC50 (hERG channel): < 30 µM

Nc1ccnc(N2CCC([C@@H](N)c3cc(Cl)c(Cl)cc3O)CC2)c1 [Compound 150, (R)-2-(amino(1-(4-aminopyridin-2-yl)piperidin-4-yl)methyl)-4,5-dichlorophenol Trifluoroacetic Acid]
IC50 (Kv1.3 potassium channel): < 0.5 µM
IC50 (hERG channel): < 30 µM

Nc1nnc(N2CCC([C@@H](N)c3cc(Cl)c(Cl)cc3O)CC2)s1 [Compound 151, 2-[(R)-amino[1-(5-amino-1,3,4-thiadiazol-2-yl)piperidin-4-yl]methyl]-4,5-dichlorophenol Trifluoroacetic Acid]
IC50 (Kv1.3 potassium channel): < 10 µM
IC50 (hERG channel): < 30 µM

N[C@@H](c1cc(Cl)c(Cl)cc1O)C1CCN(C(=O)c2nnc[nH]2)CC1 [Compound 152, (R)-(4-(amino(4,5-dichloro-2-hydroxyphenyl)methyl)piperidin-1-yl)(1H-1,2,4-triazol-3-yl)methanone trifluoroacetic acid]
IC50 (Kv1.3 potassium channel): < 10 µM
IC50 (hERG channel): > 30 µM

Cc1[nH]ncc1C(=O)N1CCC([C@@H](N)c2cc(Cl)c(Cl)cc2O)CC1 [Compound 153, 2-[(R)-amino[1-(3-methyl-1H-pyrazole-4-carbonyl)piperidin-4-yl]methyl]-4,5-dichlorophenol trifluoroacetic acid]
IC50 (Kv1.3 potassium channel): < 0.5 µM
IC50 (hERG channel): > 30 µM

N[C@@H](c1cc(Cl)c(Cl)cc1O)C1CCN(c2ccn[nH]2)CC1 [Compound 154, 2-[(R)-amino[1-(1H-pyrazol-3-yl)piperidin-4-yl]methyl]-4,5-dichlorophenol Trifluoroacetic Acid]
IC50 (Kv1.3 potassium channel): < 10 µM
IC50 (hERG channel): > 30 µM

Nc1nnc(C(=O)N2CCC([C@@H](N)c3cc(Cl)c(Cl)cc3O)CC2)o1 [Compound 155, 2-[(R)-amino[1-(5-amino-1,3,4-oxadiazole-2-carbonyl)piperidin-4-yl]methyl]-4,5-dichlorophenol trifluoroacetic acid]
IC50 (Kv1.3 potassium channel): < 10 µM
IC50 (hERG channel): > 30 µM

CC(C)C(N)C(=O)N1CCC([C@@H](N)c2cc(Cl)c(Cl)cc2O)CC1 (stereo partly drawn) [Compound 156, 2-amino-1-[4-[(R)-amino(4,5-dichloro-2-hydroxyphenyl)methyl]piperidin-1-yl]-3-methylbutan-1-one trifluoroacetic acid]
IC50 (Kv1.3 potassium channel): < 10 µM
IC50 (hERG channel): > 30 µM

N[C@@H](c1cc(Cl)c(Cl)cc1O)C1CCN(C(=O)c2cn[nH]n2)CC1 [Compound 157, 2-[(R)-amino[1-(1H-1,2,3-triazole-4-carbonyl)piperidin-4-yl]methyl]-4,5-dichlorophenol trifluoroacetic acid]
IC50 (Kv1.3 potassium channel): < 0.5 µM
IC50 (hERG channel): > 30 µM

N[C@@H](c1cc(Cl)c(Cl)cc1O)C1CCN(S(=O)(=O)c2cn[nH]c2)CC1 [Compound 158, 2-[(R)-amino[1-(1H-pyrazole-4-sulfonyl)piperidin-4-yl]methyl]-4,5-dichlorophenol Trifluoroacetic Acid]
IC50 (Kv1.3 potassium channel): < 10 µM
IC50 (hERG channel): < 30 µM

Cc1n[nH]c(C)c1C(=O)N1CCC([C@@H](N)c2cc(Cl)c(Cl)cc2O)CC1 [Compound 159, 2-[(R)-amino[1-(3,5-dimethyl-1H-pyrazole-4-carbonyl)piperidin-4-yl]methyl]-4,5-dichlorophenol]
IC50 (Kv1.3 potassium channel): < 10 µM
IC50 (hERG channel): > 30 µM

N[C@@H](c1cc(Cl)c(Cl)cc1O)C1CCN(C(=O)C23CC(O)(C2)C3)CC1 [Compound 160, 3-[4-[(R)-amino(4,5-dichloro-2-hydroxyphenyl)methyl]piperidine-1-carbonyl]bicyclo [1.1.1]pentan-1-ol trifluoroacetic acid]
IC50 (Kv1.3 potassium channel): < 10 µM
IC50 (hERG channel): < 30 µM

N[C@@H](c1cc(Cl)c(Cl)cc1O)C1CCN(C(=O)C2CC(F)(F)C2)CC1 [Compound 161, 2-[(R)-amino[1-(3,3-difluorocyclo-butanecarbonyl)piperidin-4-yl]methyl]-4,5-dichlorophenol]
IC50 (Kv1.3 potassium channel): < 10 µM
IC50 (hERG channel): < 30 µM

N[C@@H](c1cc(Cl)c(Cl)cc1O)C1CCN(C(=O)Cc2cn[nH]c2)CC1 [Compound 162, 1-[4-[(R)-amino(4,5-dichloro-2-hydroxyphenyl)methyl]piperidin-1-yl]-2-(1H-pyrazol-4-yl)ethan-1-one trifluoroacetic acid]
IC50 (Kv1.3 potassium channel): < 0.5 µM
IC50 (hERG channel): > 30 µM

CC1(O)CC(C(=O)N2CCC([C@@H](N)c3cc(Cl)c(Cl)cc3O)CC2)C1 (stereo partly drawn) [Compound 163, 2-[(R)-amino[1-(3-hydroxy-3-methylcyclo-butanecarbonyl)piperidin-4-yl]methyl]-4,5-dichlorophenol]
IC50 (Kv1.3 potassium channel): < 10 µM
IC50 (hERG channel): > 30 µM

N[C@@H](c1cc(Cl)c(Cl)cc1O)C1CCN(C(=O)c2cnc[nH]2)CC1 [Compound 164, 2-[(R)-amino[1-(1H-imidazole-4-carbonyl)piperidin-4-yl]methyl]-4,5-dichlorophenol formic acid]
IC50 (Kv1.3 potassium channel): < 10 µM
IC50 (hERG channel): > 30 µM

N[C@@H](c1cc(Cl)c(Cl)cc1O)C1CCN(C(=O)[C@H]2CCC(=O)N2)CC1 [Compound 165, (5R)-5-[4-[(R)-amino(4,5-dichloro-2-hydroxyphenyl)methyl]piperidine-1-carbonyl] pyrrolidin-2-one trifluoroacetic acid]
IC50 (Kv1.3 potassium channel): < 0.5 µM
IC50 (hERG channel): > 30 µM

N[C@@H](c1cc(Cl)c(Cl)cc1O)C1CCN(C(=O)[C@@H]2CCC(=O)N2)CC1 [Compound 166, (5S)-5-[4-[(R)-amino(4,5-dichloro-2-hydroxyphenyl)methyl]piperidine-1-carbonyl] pyrrolidin-2-one trifluoroacetic acid]
IC50 (Kv1.3 potassium channel): < 10 µM
IC50 (hERG channel): > 30 µM

N[C@@H](CO)C(=O)N1CCC([C@@H](N)c2cc(Cl)c(Cl)cc2O)CC1 [Compound 167, (2S)-2-amino-1-[4-[(R)-amino(4,5-dichloro-2-hydroxyphenyl)methyl]piperidin-1-yl]-3-hydroxypropan-1-one]
IC50 (Kv1.3 potassium channel): < 0.5 µM
IC50 (hERG channel): > 30 µM

CO[C@H](CO)C(=O)N1CCC([C@@H](N)c2cc(Cl)c(Cl)cc2O)CC1 [Compound 168, (2R)-1-[4-[(R)-amino(4,5-dichloro-2-hydroxyphenyl)methyl]piperidin-1-yl]-3-hydroxy-2-methoxypropan-1-one trifluoroacetic acid]
IC50 (Kv1.3 potassium channel): < 0.5 µM
IC50 (hERG channel): > 30 µM

N[C@@H](c1cc(Cl)c(Cl)cc1O)C1CCN(C(=O)[C@H]2COCCO2)CC1 [Compound 169, 2-[(R)-amino([1-[(2R)-1,4-dioxane-2-carbonyl]piperidin-4-yl])methyl]-4,5-dichlorophenol trifluoroacetic acid]
IC50 (Kv1.3 potassium channel): < 10 µM
IC50 (hERG channel): < 30 µM

N[C@@H](c1cc(Cl)c(Cl)cc1O)C1CCN(C(=O)[C@@H]2COCCO2)CC1 [Compound 170, 2-[(R)-amino([1-[(2S)-1,4-dioxane-2-carbonyl]piperidin-4-yl])methyl]-4,5-dichlorophenol trifluoroacetic acid]
IC50 (Kv1.3 potassium channel): < 10 µM
IC50 (hERG channel): < 30 µM

N[C@H](CO)C(=O)N1CCC([C@@H](N)c2cc(Cl)c(Cl)cc2O)CC1 [Compound 171, (2R)-2-amino-1-[4-[(R)-amino(4,5-dichloro-2-hydroxyphenyl)methyl]piperidin-1-yl]-3-hydroxypropan-1-one]
IC50 (Kv1.3 potassium channel): < 0.5 µM
IC50 (hERG channel): > 30 µM

N[C@@H](c1cc(Cl)c(Cl)cc1O)C1CCN(C(=O)C2CCNC(=O)C2)CC1 (stereo partly drawn) [Compound 172, 4-[4-[(R)-amino(4,5-dichloro-2-hydroxyphenyl)methyl]piperidine-1-carbonyl] piperidin-2-one trifluoroacetic acid]
IC50 (Kv1.3 potassium channel): < 10 µM
IC50 (hERG channel): > 30 µM

C[C@H](O)[C@@H](N)C(=O)N1CCC([C@@H](N)c2cc(Cl)c(Cl)cc2O)CC1 [Compound 173, (2R,3S)-2-amino-1-(4-((R)-amino(4,5-dichloro-2-hydroxyphenyl)methyl)piperidin-1-yl)-3-hydroxybutan-1-one bis (trifluoroacetic acid)]
IC50 (Kv1.3 potassium channel): < 0.5 µM
IC50 (hERG channel): > 30 µM

C[C@@H](O)[C@H](N)C(=O)N1CCC([C@@H](N)c2cc(Cl)c(Cl)cc2O)CC1 [Compound 174, (2S,3R)-2-amino-1-[4-[(R)-amino(4,5-dichloro-2-hydroxyphenyl)methyl]piperidin-1-yl]-3-hydroxybutan-1-one bis (trifluoroacetic acid)]
IC50 (Kv1.3 potassium channel): < 10 µM
IC50 (hERG channel): > 30 µM

C[C@H](O)[C@H](N)C(=O)N1CCC([C@@H](N)c2cc(Cl)c(Cl)cc2O)CC1 [Compound 175, (2S,3S)-2-amino-1-[4-[(R)-amino(4,5-dichloro-2-hydroxyphenyl)methyl]piperidin-1-yl]-3-hydroxybutan-1-one bis trifluoroacetic acid]
IC50 (Kv1.3 potassium channel): < 0.5 µM
IC50 (hERG channel): > 30 µM
